In patent US6355799B1, “Substituted benzene compounds, process for their preparation, and herbicidal and defoliant compositions containing them” (ISK Americas Incorporated, priority 1997, dated 2002):

Tests used:
Type in all cases: in vivo
[1] = tested on: field corn (Zea mays L., var. Dekalb 535, CORN); assay: Pre-emerge test, crop safety; conditions: rating scale 0-100, 14 days after application
Method in brief: (§1)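 Herbicidal damage is scored 0 (none) to 100 (complete plant death) two weeks after a simulated field spray. Rates span 15–1000 g ai/ha, delivered in acetone at 187 l/ha. For post-emergence treatments, plants have 2–3 leaves and the spray carries 0.25% v/v non-ionic surfactant.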

[2] = tested on: upland rice (Oryza sp., var. Tebonnet, RICE); assay: Pre-emerge test, crop safety; conditions: rating scale 0-100, 14 days after application
Method in brief: as §1

[3] = tested on: ivyleaf morningglory (Ipomoea hederacea, IPOHE); assay: Post-emerge test, greenhouse herbicide activity screening; conditions: rating scale 0-100 (0 no damage, 100 complete death), 14 days after application
Method in brief: (§2)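 Plants grown in 10 cm pots of sandy loam mix received acetone-dissolved compounds through a moving flat-fan nozzle. Doses ranged from 15 to 1000 g ai/ha. Pre-emerge pots were seeded one day earlier, post-emerge pots 8–21 days earlier. Fourteen days on, each pot was graded 0–100 for damage.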

[4] = tested on: large crabgrass (Digitaria sanguinalis, DIGSA); assay: as above; conditions: rating scale 0-100 (0 no damage, 100 complete death), 14 days after application
Method in brief: as §2

[5] = tested on: johnsongrass (Sorghum halepense, SORHA); assay: as above; conditions: rating scale 0-100 (0 no damage, 100 complete death), 14 days after application
Method in brief: as §2

[6] = tested on: sicklepod (Cassia obtusifolia, CASOB); assay: as above; conditions: rating scale 0-100 (0 no damage, 100 complete death), 14 days after application
Method in brief: as §2

[7] = tested on: green foxtail (Setaria viridis, SETVI); assay: as above; conditions: rating scale 0-100 (0 no damage, 100 complete death), 14 days after application
Method in brief: as §2

[8] = tested on: common ragweed (Ambrosia artemisizfolia L., AMBEL); assay: as above; conditions: rating scale 0-100 (0 no damage, 100 complete death), 14 days after application
Method in brief: as §2

[9] = tested on: redroot pigweed (Amaranthus retroflexus, AMARE); assay: as above; conditions: rating scale 0-100 (0 no damage, 100 complete death), 14 days after application
Method in brief: as §2

[10] = tested on: lambsquarters (Chenopodium album, CHEAL); assay: as above; conditions: rating scale 0-100 (0 no damage, 100 complete death), 14 days after application
Method in brief: as §2

[11] = tested on: velvetleaf (Abutilon theophrasti, ABUTH); assay: as above; conditions: rating scale 0-100 (0 no damage, 100 complete death), 14 days after application
Method in brief: as §2

[12] = tested on: barnyardgrass (Echinochloa crus-galli, ECHCG); assay: as above; conditions: rating scale 0-100 (0 no damage, 100 complete death), 14 days after application
Method in brief: as §2

[13] = tested on: field corn (Zea mays L., var. Dekalb 535, CORN); assay: Post-emerge test, crop safety; conditions: rating scale 0-100 (0 no damage, 100 complete death), 14 days after application
Method in brief: as §2

[14] = tested on: upland rice (Oryza sp., var. Tebonnet, RICE); assay: Post-emerge test, crop safety; conditions: rating scale 0-100 (0 no damage, 100 complete death), 14 days after application
Method in brief: as §2

[15] = tested on: ivyleaf morningglory (Ipomoea hederacea, IPOHE); assay: Pre-emerge test, greenhouse herbicide activity screening; conditions: rating scale 0-100, 14 days after application
Method in brief: (§3)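 Rating: 0–100 visual injury, 14 DAA. Application: acetone, 187 l/ha, 15–1000 g ai/ha, flat-fan track sprayer with nozzle 40–45 cm above soil or canopy. Post-emerge runs used 0.25% v/v surfactant on 2–3 leaf plants.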

[16] = tested on: large crabgrass (Digitaria sanguinalis, DIGSA); assay: as above; conditions: rating scale 0-100, 14 days after application
Method in brief: as §3

[17] = tested on: johnsongrass (Sorghum halepense, SORHA); assay: as above; conditions: rating scale 0-100, 14 days after application
Method in brief: as §3

[18] = tested on: sicklepod (Cassia obtusifolia, CASOB); assay: as above; conditions: rating scale 0-100, 14 days after application
Method in brief: as §3

[19] = tested on: green foxtail (Setaria viridis, SETVI); assay: as above; conditions: rating scale 0-100, 14 days after application
Method in brief: as §3

[20] = tested on: common ragweed (Ambrosia artemisizfolia L., AMBEL); assay: as above; conditions: rating scale 0-100, 14 days after application
Method in brief: as §3

[21] = tested on: lambsquarters (Chenopodium album, CHEAL); assay: as above; conditions: rating scale 0-100, 14 days after application
Method in brief: as §3

[22] = tested on: velvetleaf (Abutilon theophrasti, ABUTH); assay: as above; conditions: rating scale 0-100, 14 days after application
Method in brief: as §3

[23] = tested on: barnyardgrass (Echinochloa crus-galli, ECHCG); assay: as above; conditions: rating scale 0-100, 14 days after application
Method in brief: as §3

[24] = tested on: redroot pigweed (Amaranthus retroflexus, AMARE); assay: as above; conditions: rating scale 0-100, 14 days after application
Method in brief: as §1

For COc1c(Cl)cc(F)c(-n2c(=O)cc(C(F)(F)F)n(C)c2=O)c1CC(Cl)C(=O)OC(C)(C)C (stereo not drawn) [14-18], the “Pre-emerge phytotoxicity rating, crop damage CORN” value ([1]; 63 g ai/ha) was 0, the “Pre-emerge phytotoxicity rating, crop damage CORN” value ([1]; 250 g ai/ha) was 0 and the “Pre-emerge phytotoxicity rating, crop damage RICE” value ([2]; 63 g ai/ha) was 0. For the same compound, the “Pre-emerge phytotoxicity rating, crop damage RICE” value ([2]; 250 g ai/ha) was 10, the “Post-emerge Herbicidal Activity, phytotoxicity rating IPOHE” value ([3]; Rate 63 g ai/ha) was 30 and the “Post-emerge Herbicidal Activity, phytotoxicity rating IPOHE” value ([3]; Rate 250 g ai/ha) was 60. For the same compound, the “Post-emerge Herbicidal Activity, phytotoxicity rating DIGSA” value ([4]; Rate 63 g ai/ha) was 20, the “Post-emerge Herbicidal Activity, phytotoxicity rating DIGSA” value ([4]; Rate 250 g ai/ha) was 60 and the “Post-emerge Herbicidal Activity, phytotoxicity rating SORHA” value ([5]; Rate 63 g ai/ha) was 10. For the same compound, the “Post-emerge Herbicidal Activity, phytotoxicity rating SORHA” value ([5]; Rate 250 g ai/ha) was 30, the “Post-emerge Herbicidal Activity, phytotoxicity rating CASOB” value ([6]; Rate 63 g ai/ha) was 20 and the “Post-emerge Herbicidal Activity, phytotoxicity rating CASOB” value ([6]; Rate 250 g ai/ha) was 60. The “Post-emerge Herbicidal Activity, phytotoxicity rating SETVI” value ([7]; Rate 63 g ai/ha) was 10, the “Post-emerge Herbicidal Activity, phytotoxicity rating SETVI” value ([7]; Rate 250 g ai/ha) was 20 and the “Post-emerge Herbicidal Activity, phytotoxicity rating AMBEL” value ([8]; Rate 63 g ai/ha) was 0. For the same compound, the “Post-emerge Herbicidal Activity, phytotoxicity rating AMBEL” value ([8]; Rate 250 g ai/ha) was 10, the “Post-emerge Herbicidal Activity, phytotoxicity rating AMARE” value ([9]; Rate 63 g ai/ha) was 100 and the “Post-emerge Herbicidal Activity, phytotoxicity rating AMARE” value ([9]; Rate 250 g ai/ha) was 100. The “Post-emerge Herbicidal Activity, phytotoxicity rating CHEAL” value ([10]; Rate 63 g ai/ha) was 99, the “Post-emerge Herbicidal Activity, phytotoxicity rating CHEAL” value ([10]; Rate 250 g ai/ha) was 100 and the “Post-emerge Herbicidal Activity, phytotoxicity rating ABUTH” value ([11]; Rate 63 g ai/ha) was 30. For the same compound, the “Post-emerge Herbicidal Activity, phytotoxicity rating ABUTH” value ([11]; Rate 250 g ai/ha) was 60, the “Post-emerge Herbicidal Activity, phytotoxicity rating ECHCG” value ([12]; Rate 63 g ai/ha) was 99 and the “Post-emerge Herbicidal Activity, phytotoxicity rating ECHCG” value ([12]; Rate 250 g ai/ha) was 100. For the same compound, the “Post-emerge phytotoxicity rating CORN (crop damage)” value ([13]; Rate 63 g ai/ha) was 20, the “Post-emerge phytotoxicity rating CORN (crop damage)” value ([13]; Rate 250 g ai/ha) was 50 and the “Post-emerge phytotoxicity rating RICE (crop damage)” value ([14]; Rate 63 g ai/ha) was 10. For the same compound, the “Post-emerge phytotoxicity rating RICE (crop damage)” value ([14]; Rate 250 g ai/ha) was 25, the “Pre-emerge herbicidal activity, phytotoxicity rating IPOHE” value ([15]; 63 g ai/ha) was 0 and the “Pre-emerge herbicidal activity, phytotoxicity rating IPOHE” value ([15]; 250 g ai/ha) was 20. For the same compound, the “Pre-emerge herbicidal activity, phytotoxicity rating DIGSA” value ([16]; 63 g ai/ha) was 0, the “Pre-emerge herbicidal activity, phytotoxicity rating DIGSA” value ([16]; 250 g ai/ha) was 90 and the “Pre-emerge herbicidal activity, phytotoxicity rating SORHA” value ([17]; 63 g ai/ha) was 0. For the same compound, the “Pre-emerge herbicidal activity, phytotoxicity rating SORHA” value ([17]; 250 g ai/ha) was 10, the “Pre-emerge herbicidal activity, phytotoxicity rating CASOB” value ([18]; 63 g ai/ha) was 0 and the “Pre-emerge herbicidal activity, phytotoxicity rating CASOB” value ([18]; 250 g ai/ha) was 20. For the same compound, the “Pre-emerge herbicidal activity, phytotoxicity rating SETVI” value ([19]; 63 g ai/ha) was 0, the “Pre-emerge herbicidal activity, phytotoxicity rating SETVI” value ([19]; 250 g ai/ha) was 20 and the “Pre-emerge herbicidal activity, phytotoxicity rating AMBEL” value ([20]; 63 g ai/ha) was 0. For the same compound, the “Pre-emerge herbicidal activity, phytotoxicity rating AMBEL” value ([20]; 250 g ai/ha) was 70, the “Pre-emerge herbicidal activity, phytotoxicity rating CHEAL” value ([21]; 63 g ai/ha) was 100 and the “Pre-emerge herbicidal activity, phytotoxicity rating CHEAL” value ([21]; 250 g ai/ha) was 100. The “Pre-emerge herbicidal activity, phytotoxicity rating ABUTH” value ([22]; 63 g ai/ha) was 40, the “Pre-emerge herbicidal activity, phytotoxicity rating ABUTH” value ([22]; 250 g ai/ha) was 70 and the “Pre-emerge herbicidal activity, phytotoxicity rating ECHCG” value ([23]; 63 g ai/ha) was 0. For the same compound, the “Pre-emerge herbicidal activity, phytotoxicity rating ECHCG” value ([23]; 250 g ai/ha) was 20, the “Pre-emerge herbicidal activity, phytotoxicity rating AMARE” value ([24]; 63 g ai/ha) was 100 and the “Pre-emerge herbicidal activity, phytotoxicity rating AMARE” value ([24]; 250 g ai/ha) was 100.
